US20230107216A1, “PANTETHEINE DERIVATIVES AND USES THEREOF” (Comet Therapeutics, Inc., priority 2018, published 2023)

Key:
[1] = tested on: tyrosine hydroxylase positive mesencephalic neurons injured by 6-OHDA; assay: Neuroprotective effect on damage induced by 6-OHDA on culture of mesencephalic neurons; assay type: cell-based; conditions: Rattus norvegicus, Neuron; 50 uM; 6-OHDA 15 μM, 48h; read-out: % reversion of TH positive neurons (6-OHDA-mediated degradation of dopaminergic neurons)
Description: The protective effect of compounds of the present disclosure was determined on 6-OHDA-mediated injury on mesencephalon neuronal cultures.
(§1) A female Wistar rat (Janvier; France) of 15 days gestation was terminated by cervical dislocation, the fetuses were removed from the uterus and their brains were harvested and placed in ice-cold medium (Leibovitz's L15 medium, Gibco). Only ventral mesencephalic flexure was used for the cell preparations. The midbrain was dissociated by trypsinization. The reaction was stopped, and the suspension was triturated and centrifuged. The pellet of dissociated cells was resuspended in chemically defined medium consisted of Neurobasal (Gibco, 21103049), containing B27 supplement (Gibco, A3582801) and L-glutamine (Gibco, 25030081), 10 ng/ml (BDNF; Pepro Tech, France, 450-02) and 1 ng/ml (GDNF; Pepro Tech, 450-51).
(§2) Viable primary rat embryo mesencephalic cells were counted and seeded on 96-multi-wells plate precoated with poly-L-lysine. Cells were maintained in a humidified incubator at 37° C. in 5% CO2-95% air atmosphere and medium changed on day 2. On day 6, the culture medium was removed and replaced by new media without neurotrophic factors containing the compounds of the present disclosure (50-10 μM) or vehicle (0.1% DMSO). After 1h exposure, injury of mesencephalon neuronal cultures was induced by 6-OHDA (15 μM) for further 48h. A mixture of the growth factors GDNF (1 ng/ml) and BDNF (10 ng/ml) were used as reference compound. On day 8, the tyrosine hydroxylase positive neurons were evaluated. Cultures were fixed 30 min at 4° C. with paraformaldehyde in PBS (4%, Sigma). After, cells were permeabilized with 0.1% Triton X100 for 30 min, saturated with PBS containing 3% of BSA (bovine serum albumin) and incubated 2h with anti-tyrosine hydroxylase antibody (Sigma, 1:10000; clone TH-2) at 1/10000 in PBS containing 0.5% of BSA. Cells were washed three times with PBS containing 0.5% of BSA and incubated 1h with goat anti mouse antibody coupled with AF488 (Invitrogen A11001) diluted at 1/1000 in PBS containing 0.5% of BSA. Finally, nuclei were stained with DAPI (Thermo fisher, D1306) at 1/1000 in PBS containing 0.5% of BSA. After rinsing with PBS, the plate was visualized and examined with Cell Insight HCS (Thermo Scientific) to determine the number of tyrosine hydroxylase positive cells per well.
(§3) The results for each well were expressed as a percentage by setting the density of tyrosine hydroxylase positive cells under control conditions to 100%. Then the result for each condition was reported as mean±SEM from 4 independent cultures.
(§4) A global analysis of the data was performed using a one-way analysis of variance (ANOVA), followed by Fisher's Protected Least Significant Difference when applicable. The level of significance was set to p<0.05.

[2] = tested on: tyrosine hydroxylase positive mesencephalic neurons injured by MPP+; assay: Neuroprotective effect on damage induced by MPP+ on culture of mesencephalic neurons; assay type: cell-based; conditions: Rattus norvegicus, Neuron, MPP+ 50 μM, 48h, read-out: % reversion of TH positive neurons (MPTP-mediated degradation of dopaminergic neurons)
Description: as §1, with “(Gibco),” for “(Gibco, 21103049),”, “(Gibco)” for “(Gibco, A3582801)”, “(Gibco),” for “(Gibco, 25030081),”, “France)” for “France, 450-02)”, “Tech).” for “Tech, 450-51).”
as §2, with “MPP^+ (50” for “6-OHDA (15”, “Thermo Scientific, 28908).” for “Sigma).”, “DAPI” for “DAPI (Thermo fisher, D1306)”
as §3, §4

[3] = tested on: primary fibroblasts (healthy controls and PA, MMA, BCKDK, PDH, VLCAD, LS, PC, GA, VLCFA, KSS, FXN, HD); assay: Measurement of ROS (H2DCFDA) in primary fibroblasts; assay type: cell-based, human; conditions: Homo sapiens, Fibroblast; BCKD GM00612; procedure Example 812; Assay Condition A; read-out: Decreased ROS by at least 10%
Outline: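 Patient and healthy-control primary fibroblasts switched to supplemented DMEM 24 h before assay, then treated with compound (10 μM) plus H2DCFDA (22 μM) for 2 h (PA, MMA lines) or 24 h (other lines). Kinetic fluorescence at 492/527 nm over 60 min; only live cells analysed.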

Compound: CC(C)(CO)[C@@H](O)C(=O)NCCC(=O)NCCSC(=O)[C@@H](N)CCC(=O)O [Compound 383]
- inhibition at 50 µM [1]: ≥ 30%
- inhibition at 10 µM [2]: ≥ 60%
- inhibition at 10 µM [3]: ≥ 10%
